Test results taken from ChEMBL document CHEMBL4819070, “Synthesis and biological evaluation of 2-(4-alkoxy-3-cyano)phenylpyrimidine derivatives with 4-amino or 4-hydroxy as a pharmacophore element binding with xanthine oxidase active site” (Bioorg Med Chem, 2021).
Activity calls are given as the source filed them. No cut-off for these calls is given here.

Key:
[1] = target: T1, Xanthine dehydrogenase/oxidase (Bos taurus, UniProt P80457); test: Inhibition of bovine milk xanthine oxidase assessed as reduction in uric acid formation using xanthine as substrate preincubated for 15 mins followed by substrate addition measured for every 30 sec by spectrophotometric analysis
[2] = target: T1, Xanthine dehydrogenase/oxidase; test: Inhibition of bovine milk xanthine oxidase assessed as reduction in uric acid formation at 10 uM using xanthine as substrate preincubated for 15 mins followed by substrate addition measured for every 30 sec by spectrophotometric analysis relative to control; conditions: cattle, 0.5 min
[3] = target: T1, Xanthine dehydrogenase/oxidase; test: Mixed type inhibition of bovine milk xanthine oxidase assessed as inhibitory constant using xanthine as substrate preincubated for 15 mins followed by substrate addition measured for every 30 sec by spectrophotometric analysis
Rattus norvegicus [4] = test: Hypouricemic activity in Sprague-Dawley rat model of Potassium oxonate-induced acute hyperuricemia assessed as decrease in serum uric acid at 10 mg/kg, IG administered after potassium oxonate treatment and measured upto 8 hrs; type: functional, organism-based; conditions: time hrs <=8
Rattus norvegicus [5] = test: Hypouricemic activity in Sprague-Dawley rat model of Potassium oxonate-induced acute hyperuricemia assessed as decrease in serum uric acid at 30 to 90 mg/kg, IG administered after potassium oxonate treatment and measured at 1 hr; type: functional, organism-based; conditions: dose 30-90 mg/kg
Rattus norvegicus [6] = test: Hypouricemic activity in Sprague-Dawley rat model of Potassium oxonate-induced acute hyperuricemia assessed as decrease in serum uric acid AUC (1 to 8 hrs) at 30 to 90 mg/kg, IG administered after potassium oxonate treatment and measured at 1 hr; type: functional, organism-based; conditions: dose 30-90 mg/kg
[7] = target: T1, Xanthine dehydrogenase/oxidase; test: Inhibition of bovine milk xanthine oxidase assessed as increase in Km at 0.01 to 0.06 uM by Lineweaver-Burk plot analysis; conditions: cattle, dose 0.01-0.06 µM
[8] = target: T1, Xanthine dehydrogenase/oxidase; test: Inhibition of bovine milk xanthine oxidase assessed as decrease in Vmax at 0.01 to 0.06 uM by Lineweaver-Burk plot analysis; conditions: cattle, dose 0.01-0.06 µM

T1 sequence (P80457 whole entry): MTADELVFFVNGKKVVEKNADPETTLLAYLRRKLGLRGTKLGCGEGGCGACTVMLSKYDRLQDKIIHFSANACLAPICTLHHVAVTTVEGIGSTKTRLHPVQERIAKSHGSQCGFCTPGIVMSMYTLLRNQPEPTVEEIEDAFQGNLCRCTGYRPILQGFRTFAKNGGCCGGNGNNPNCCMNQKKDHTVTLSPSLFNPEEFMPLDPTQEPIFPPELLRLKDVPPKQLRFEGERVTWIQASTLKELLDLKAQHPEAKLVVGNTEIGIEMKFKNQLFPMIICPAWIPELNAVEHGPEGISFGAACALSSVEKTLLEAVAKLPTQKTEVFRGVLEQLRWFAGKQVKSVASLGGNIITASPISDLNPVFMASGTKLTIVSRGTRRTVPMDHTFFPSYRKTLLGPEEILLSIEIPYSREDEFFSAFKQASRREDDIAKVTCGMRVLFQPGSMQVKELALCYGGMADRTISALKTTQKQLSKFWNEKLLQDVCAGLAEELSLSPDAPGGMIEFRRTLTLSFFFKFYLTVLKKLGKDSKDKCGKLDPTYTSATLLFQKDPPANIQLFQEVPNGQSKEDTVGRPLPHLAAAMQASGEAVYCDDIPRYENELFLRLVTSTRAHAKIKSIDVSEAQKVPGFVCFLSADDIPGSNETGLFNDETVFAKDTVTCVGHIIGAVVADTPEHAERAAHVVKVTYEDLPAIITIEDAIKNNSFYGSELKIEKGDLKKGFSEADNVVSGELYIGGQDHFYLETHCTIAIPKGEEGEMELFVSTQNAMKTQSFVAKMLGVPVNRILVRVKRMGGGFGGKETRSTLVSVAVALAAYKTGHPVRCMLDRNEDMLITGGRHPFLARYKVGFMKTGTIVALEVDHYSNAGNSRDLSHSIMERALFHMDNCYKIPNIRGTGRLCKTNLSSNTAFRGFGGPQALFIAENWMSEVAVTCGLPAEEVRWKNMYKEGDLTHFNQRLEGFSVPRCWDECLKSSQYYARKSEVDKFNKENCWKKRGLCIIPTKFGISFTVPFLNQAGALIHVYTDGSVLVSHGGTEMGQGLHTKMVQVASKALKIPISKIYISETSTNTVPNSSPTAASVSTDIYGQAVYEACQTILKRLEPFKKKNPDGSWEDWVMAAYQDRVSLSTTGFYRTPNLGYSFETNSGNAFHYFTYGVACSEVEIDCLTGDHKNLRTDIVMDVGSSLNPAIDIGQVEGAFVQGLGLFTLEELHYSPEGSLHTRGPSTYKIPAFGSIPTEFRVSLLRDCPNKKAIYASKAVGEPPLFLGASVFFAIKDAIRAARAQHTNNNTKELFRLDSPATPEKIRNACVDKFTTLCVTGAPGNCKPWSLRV

CC(C)COc1ccc(-c2nc(N)cc(O)n2)cc1C#N
IC50 [1]: 130 nM

CC(C)COc1ccc(-c2ncccn2)cc1C#N
IC50 [1]: 1610 nM

N#Cc1cc(-c2nccc(O)n2)ccc1OCc1ccc(F)cc1
IC50 [1]: 75 nM

N#Cc1cc(-c2nccc(O)n2)ccc1OCC1CCCCC1
IC50 [1]: 73 nM

N#Cc1cc(-c2nccc(O)n2)ccc1OCC1CC1
IC50 [1]: 93 nM

N#Cc1cc(-c2nccc(O)n2)ccc1OCc1ccc(Br)cc1
IC50 [1]: 95 nM

COc1ccc(-c2nccc(O)n2)cc1C#N
IC50 [1]: 179 nM

N#Cc1cc(-c2nccc(O)n2)ccc1OCc1ccccc1
IC50 [1]: 66 nM

N#Cc1cc(-c2nccc(O)n2)ccc1O
inhibition at 10 µM [2]: < 50%

N#Cc1cc(-c2nccc(O)n2)ccc1OCc1ccccc1F
IC50 [1]: 60 nM

CC(C)COc1ccc(-c2nccc(N)n2)cc1C#N
IC50 [1]: 262 nM

N#Cc1cc(-c2nccc(O)n2)ccc1OCc1cccc(F)c1
IC50 [1]: 77 nM

COc1ccc(COc2ccc(-c3nccc(O)n3)cc2C#N)cc1
IC50 [1]: 193 nM

CC(C)(C)c1ccc(COc2ccc(-c3nccc(O)n3)cc2C#N)cc1
IC50 [1]: 282 nM

N#Cc1cc(-c2nccc(N)n2)ccc1OCC1CCCCC1
IC50 [1]: 539 nM

N#Cc1cc(-c2ncccn2)ccc1OCC1CCCCC1
IC50 [1]: 4450 nM

N#Cc1cc(-c2nccc(N)n2)ccc1OCc1ccccc1
IC50 [1]: 347 nM

CC(C)Oc1ccc(-c2nccc(O)n2)cc1C#N
IC50 [1]: 74 nM

CC(C)CCOc1ccc(-c2nccc(O)n2)cc1C#N
IC50 [1]: 46 nM
Ki [3]: 18 nM
Activity (Rattus norvegicus [4]): inactive
Activity (Rattus norvegicus [5]): Active
Activity (Rattus norvegicus [6]): Active
inhibition (INH) [7]: Active
inhibition (INH) [8]: Active

CC(C)=COc1ccc(-c2nccc(O)n2)cc1C#N
IC50 [1]: 55 nM

N#Cc1cc(-c2ncccn2)ccc1OCc1ccccc1
IC50 [1]: 1950 nM

Cc1ccc(COc2ccc(-c3nccc(O)n3)cc2C#N)cc1
IC50 [1]: 79 nM

CC(C)COc1ccc(-c2nccc(O)n2)cc1C#N
IC50 [1]: 69 nM

N#Cc1cc(-c2nc(N)cc(O)n2)ccc1OCC1CCCCC1
IC50 [1]: 275 nM

N#Cc1cc(-c2nccc(O)n2)ccc1OCc1ccc(Cl)cc1
IC50 [1]: 148 nM

N#Cc1cc(-c2nc(N)cc(O)n2)ccc1OCc1ccccc1
IC50 [1]: 209 nM
